In paper PMC10537538, “Preclinical Investigation of a Lipoglycopeptide Dry Powder Inhalation Therapy for the Treatment of Pulmonary MRSA Infection” (Pharmaceutics, 2023):
Structures can show the parent of a compound that is named as a salt. Where two headings read alike, the source gives them in different places. Blank lines part the entries; values can stand above or below the compound they belong to.

What was measured:
[1] = test system: MRSA ATCC BAA-1556 (USA300); assay: MIC by CLSI broth microdilution, MRSA; assay type: cell-based, Staphylococcus aureus; conditions: for MIC: Staphylococcus aureus, read-out: MRSA MIC
From the text: (§1) In Vitro Susceptibility. Clinical and Laboratory Standards Institute (CLSI) guidelines were followed for the determination of the minimum inhibitory concentration (MIC), using cation-adjusted Mueller Hinton broth microdilution at a starting inoculum level of 5 × 10^5 colony forming units (CFUs) per mL [24, 25]. MIC was read by optical density on a BioTek Synergy H1 plate reader (BioTek, Winooski, VT, USA) at 595 nm. Strains used were MRSA ATCC BAA-1556 (USA300, SCCmecIV, pvl^+) and MSSA ATCC 29213 (American Type Culture Collection, Manassas, VA, USA). MIC data are reported as a range to reflect the fact that the value is determined using step dilution.

MSSA ATCC 29213 = assay: MIC by CLSI broth microdilution, MSSA; assay type: cell-based; conditions: Staphylococcus aureus, read-out: MSSA MIC
From the text: as §1

[2] = cited from earlier work

MIC ([1]; ATCC BAA-1556 (USA300), CLSI): 0.031 to 0.063 µg/mL | MIC (MSSA ATCC 29213; ATCC 29213, CLSI): 0.031 to 0.063 µg/mL | pH needed to dissolve drug substance: > 9
SMILES: CCCCCCCCCCNC(=O)CN[C@@]1(C)C[C@H](O[C@H]2[C@H](Oc3c4cc5cc3Oc3ccc(cc3Cl)[C@@H](O)[C@@H](NC(=O)[C@@H](CC(C)C)NC)C(=O)N[C@@H](CC(N)=O)C(=O)N[C@H]5C(=O)N[C@H]3C(=O)N[C@H](C(=O)N[C@H](C(=O)O)c5cc(O)cc(O)c5-c5cc3ccc5O)[C@H](O)c3ccc(c(Cl)c3)O4)O[C@H](CO)[C@@H](O)[C@@H]2O)O[C@@H](C)[C@H]1O [RV94, N^van-2-amino-N-decylacetamide vancomycin]
potency relative to vancomycin (fold more potent) ([1]; MIC, MSSA and MRSA isolates): ca. 15 fold | lung half-life, nebulized form ([2]; rat, in vivo, inhaled or intranasal): approximately 4.5 days

SMILES: CN[C@H](CC(C)C)C(=O)N[C@H]1C(=O)N[C@@H](CC(N)=O)C(=O)N[C@H]2C(=O)N[C@H]3C(=O)N[C@H](C(=O)N[C@H](C(=O)O)c4cc(O)cc(O)c4-c4cc3ccc4O)[C@H](O)c3ccc(c(Cl)c3)Oc3cc2cc(c3O[C@@H]2O[C@H](CO)[C@@H](O)[C@H](O)[C@H]2O[C@H]2C[C@](C)(N)[C@H](O)[C@H](C)O2)Oc2ccc(cc2Cl)[C@H]1O [Vancomycin, Vancomycin HCl, reference compound]
MIC [1]: 0.5 to 2 µg/mL | MIC (MSSA ATCC 29213): 0.5 to 1 µg/mL

SMILES: CCCCCCCCCCNCCN[C@@]1(C)C[C@H](O[C@H]2[C@H](Oc3c4cc5cc3Oc3ccc(cc3Cl)[C@@H](O)[C@@H](NC(=O)[C@@H](CC(C)C)NC)C(=O)N[C@@H](CC(N)=O)C(=O)N[C@H]5C(=O)N[C@H]3C(=O)N[C@H](C(=O)N[C@H](C(=O)O)c5cc(O)c(CNCP(=O)(O)O)c(O)c5-c5cc3ccc5O)[C@H](O)c3ccc(c(Cl)c3)O4)O[C@H](CO)[C@@H](O)[C@@H]2O)O[C@@H](C)[C@H]1O [telavancin, reference compound]
lung half-life, nebulized form ([2]; rats, inhalation of nebulized preparation): ca. 21 days
